# According to patent EP0777471B1, “INHIBITION OF LEUKOTRIENE BIOSYNTHESIS WITH UREA DERIVATIVES” (MINNESOTA MINING AND MANUFACTURING COMPANY, priority 1994, dated 1996):
# Biological target: T1, 5-lipoxygenase (Homo sapiens, UniProt P09917)
# T1 construct: Whole human blood is collected by venipuncture into EDTA; endogenous in cells; host or cells: leukocytes isolated from whole human blood (dextran sedimentation, hypotonic lysis)
# T1 sequence (P09917 1-674): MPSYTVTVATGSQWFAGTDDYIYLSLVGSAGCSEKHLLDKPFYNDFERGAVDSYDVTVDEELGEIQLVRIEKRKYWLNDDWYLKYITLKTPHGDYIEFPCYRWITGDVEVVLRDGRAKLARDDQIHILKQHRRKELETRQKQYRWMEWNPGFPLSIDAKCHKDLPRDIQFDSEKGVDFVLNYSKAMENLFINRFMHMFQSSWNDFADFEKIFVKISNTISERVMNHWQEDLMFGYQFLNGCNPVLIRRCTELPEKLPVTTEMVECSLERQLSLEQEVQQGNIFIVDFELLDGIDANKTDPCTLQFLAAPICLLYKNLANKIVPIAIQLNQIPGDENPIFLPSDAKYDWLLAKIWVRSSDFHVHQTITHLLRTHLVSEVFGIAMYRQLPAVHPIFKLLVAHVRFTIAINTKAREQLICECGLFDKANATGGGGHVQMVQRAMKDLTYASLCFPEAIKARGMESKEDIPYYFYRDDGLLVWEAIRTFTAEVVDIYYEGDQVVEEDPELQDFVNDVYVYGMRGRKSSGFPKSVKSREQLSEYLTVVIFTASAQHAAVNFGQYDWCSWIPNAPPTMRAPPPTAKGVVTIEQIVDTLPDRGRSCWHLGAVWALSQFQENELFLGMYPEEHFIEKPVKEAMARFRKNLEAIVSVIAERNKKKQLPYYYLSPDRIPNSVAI
# Assay: 5-Lipoxygenase inhibition in human leukocytes (A23187-stimulated, LTC4 radioimmunoassay)
# Type: cell-based
# Details: not given
# Experimental: The test method described below measures the ability of compounds to inhibit 5-lipoxygenase activity in human leukocytes.
# Whole human blood is collected by venipuncture into EDTA (1.4 mL of 0.25M per 60 mL of whole blood). The red blood cells are sedimented with a 6% dextran/0.9% sodium chloride solution at a ratio of 25 mL whole blood to 15 mL dextran solution. The blood/dextran combination is mixed by inversion and the red blood cells are allowed to settle out for 45 minutes at ambient temperature. The plasma/dextran supernatant is removed then centrifuged at ambient temperature at 3000 rpm for 10 minutes. The plasma/dextran supernatant is removed and the cells are resuspended in 10 mL of the plasma/dextran solution. […] The pellet is then resuspended into Tris buffer containing 1 mM calcium chloride to provide approximately 1.0 X 10^7 cells/mL.
# Compounds are dissolved in dimethyl sulfoxide. […] Each concentration is tested in duplicate.
# A 15 µL portion of Tris buffer containing 1 mM calcium chloride is added to each well of a 96 well microtiter plate. A 1 µL portion of drug solution or vehicle (dimethyl sulfoxide) is added to each well followed by the addition of an 75 µL portion of the cell suspension. The plates are gently mixed then allowed to stand at ambient temperature for 10 minutes. A 10 µL portion of 30 µM A23187 Calcium Ionophore (prepared by dissolving the ionophore in DMSO and then diluting 1:80 into the Tris buffer) is added to each well except the wells that contain the blanks (The blank wells measure the level of LTC4 production in the absence of A23187.). The plates are gently mixed then incubated at 37°C for 10 minutes.
# Following incubation the plates are centrifuged at 2000 rpm for 1.5 minutes and the supernatant is removed as quickly as possible to stop the reaction. The supernatants are frozen at -20°C until they are assayed.
# The supernatants are assayed for the presence of Leukotriene C4 by radioimmunoassay which is performed according to the manufacturer's (Advanced Magnetics; Cambridge, MA) instructions.
row,Structure (SMILES),IC50
1,"CC(C)N(O)C(=O)Nc1ccccc1Cl [Compound 24, 3-(2-chlorophenyl)-1-hydroxy-1-(1-methylethyl)urea]",200 nM

# Same assay, conditions: human leukocytes, A23187 Calcium Ionophore, LTC4 formed; read-out: IC50
row,Structure (SMILES),IC50
1,"CSc1ccc(NC(=O)N(C)O)cc1 [Compound 1, 1-Hydroxy-1-methyl-3-[4-(methylthio)phenyl]urea]",83 nM
2,"COc1cccc(NC(=O)N(C)O)c1 [Compound 5, 1-hydroxy-3-(3-methoxyphenyl)-1-methylurea]",420 nM
3,"CN(O)C(=O)Nc1cccc(Br)c1 [Compound 6, 3-(3-bromophenyl)-1-hydroxy-1-methylurea]",70 nM
4,"Cc1cccc(NC(=O)N(C)O)c1 [Compound 7, 1-hydroxy-1-methyl-3-(3-methylphenyl)urea]",280 nM
5,"CN(O)C(=O)Nc1cccc(F)c1 [Compound 8, 3-(3-fluorophenyl)-1-hydroxy-1-methylurea]",680 nM
6,"CN(O)C(=O)Nc1cccc([N+](=O)[O-])c1 [Compound 9, 1-hydroxy-1-methyl-3-(3-nitrophenyl)urea]",80 nM
7,"CN(O)C(=O)Nc1ccccc1 [Compound 10, 1-hydroxy-1-methyl-3-phenylurea]",20 nM
8,"CSc1cccc(NC(=O)N(O)C(C)C)c1 [Compound 16, 1-hydroxy-1-(1-methylethyl)-3-[3-(methylthio)phenyl]urea]",8 nM
9,"CC(C)N(O)C(=O)Nc1ccccc1 [Compound 17, 1-hydroxy-1-(1-methylethyl)-3-phenylurea]",43 nM
10,"CC(C)N(O)C(=O)Nc1ccc(F)cc1 [Compound 18, 3-(4-fluorophenyl)-1-hydroxy-1-(1-methylethyl)urea]",210 nM
11,"CC(C)N(O)C(=O)Nc1ccc(Br)cc1 [Compound 19, 3-(4-bromophenyl)-1-hydroxy-1-(1-methylethyl)urea]",100 nM
12,"CC(C)N(O)C(=O)Nc1ccccc1F [Compound 20, 3-(2-fluorophenyl)-1-hydroxy-1-(1-methylethyl)urea]",700 nM
13,"Cc1cccc(NC(=O)N(O)C(C)C)c1 [Compound 21, 1-hydroxy-1-(1-methylethyl)-3-(3-methylphenyl)urea]",230 nM
14,"COc1ccc(NC(=O)N(O)C(C)C)cc1 [Compound 23, 1-hydroxy-3-(4-methoxyphenyl)-1-(1-methylethyl)urea]",150 nM
15,"Cc1ccccc1NC(=O)N(O)C(C)C [Compound 25, 1-hydroxy-1-(1-methylethyl)-3-(2-methylphenyl)urea]",130 nM
16,"CC(C)CCN(O)C(=O)Nc1ccccc1 [Compound 44, 1-hydroxy-1-(3-methylbutyl)-3-phenylurea]",10 nM
17,"CC(C)CN(O)C(=O)Nc1ccccc1 [Compound 54, 1-Hydroxy-1-(2-methylpropyl)-3-phenylurea]",94 nM
18,"CN(O)C(=O)Nc1cccc(S(C)(=O)=O)c1 [Compound 59, 1-Hydroxy-1-methyl-3-[3-(methylsulfonyl)phenyl]urea]",1100 nM
